System: T1, soluble HRP (horseradish peroxidase)
T1 construct: gene PRXC1A; soluble (free) enzyme, gift of Dr. Elba Bon (UFRJ)
Assay: spectrophotometric, purpurogallin formation at […] nm, nonlinear hyperbolic fit
Assay type: biochemical, Armoracia rusticana
Settings: soluble enzyme; co-substrate H2O2 (0.25 mL of 5 mM); pyrogallol 4.0-48.7 mM; 28 °C; pH of kinetics not clearly stated (4.5 or 7.0)

Km: 5.47 ± 0.71 mM
Compound: Oc1cccc(O)c1O [pyrogallol]

Reference: paper PMC3349093, “Immobilized Horseradish Peroxidase on Discs of Polyvinyl Alcohol-Glutaraldehyde Coated with Polyaniline” (The Scientific World Journal, 2012)
